According to the NIST ThermoML archive (doi:10.1016/j.jct.2018.04.018):
Values joined by “and” are separate entries in the source; they are usually repeats but may differ in a detail not shown here. Equal values may be shown once.

Details: 101.33 kPa, Liquid; for speed of sound: Single path-length method; for mass density: Vibrating tube method

CCCCCCCC[n+]1ccn(C)c1.F[P-](F)(F)(F)(F)F [1-octyl-3-methylimidazolium hexafluorophosphate]
Details	viscosity
332.11 K, Cone and plate viscometry	101.6 mPa·s
332.85 K, Cone and plate viscometry	99.6 mPa·s and 99.3 mPa·s
333.15 K, Concentric cylinders viscometry	98.3 mPa·s
333.59 K, Cone and plate viscometry	95.7 mPa·s and 96 mPa·s
334.34 K, Cone and plate viscometry	92.5 mPa·s
334.35 K, Cone and plate viscometry	93 mPa·s
335.07 K, Cone and plate viscometry	89.7 mPa·s
335.09 K, Cone and plate viscometry	89.6 mPa·s
335.82 K, Cone and plate viscometry	86.7 mPa·s and 86.8 mPa·s
336.57 K, Cone and plate viscometry	84.1 mPa·s
337.31 K, Cone and plate viscometry	81.6 mPa·s and 81.7 mPa·s
338.05 K, Cone and plate viscometry	79.3 mPa·s
338.06 K, Cone and plate viscometry	78.8 mPa·s
338.79 K, Cone and plate viscometry	76.6 mPa·s
338.81 K, Cone and plate viscometry	76.2 mPa·s
339.54 K, Cone and plate viscometry	73.9 mPa·s and 74.2 mPa·s
340.28 K, Cone and plate viscometry	72 mPa·s
340.29 K, Cone and plate viscometry	71.9 mPa·s
341.03 K, Cone and plate viscometry	70 mPa·s
341.04 K, Cone and plate viscometry	69.8 mPa·s
341.77 K, Cone and plate viscometry	68 mPa·s and 68.1 mPa·s
342.51 K, Cone and plate viscometry	66.1 mPa·s and 66.6 mPa·s
343.15 K, Concentric cylinders viscometry	64.9 mPa·s
343.25 K, Cone and plate viscometry	64.1 mPa·s and 63.9 mPa·s
344 K, Cone and plate viscometry	62.2 mPa·s and 62 mPa·s
344.73 K, Cone and plate viscometry	60.4 mPa·s
344.76 K, Cone and plate viscometry	60.4 mPa·s
345.48 K, Cone and plate viscometry	58.8 mPa·s
345.51 K, Cone and plate viscometry	58.8 mPa·s
346.22 K, Cone and plate viscometry	57.2 mPa·s
346.29 K, Cone and plate viscometry	56.9 mPa·s
346.97 K, Cone and plate viscometry	55.4 mPa·s
347.05 K, Cone and plate viscometry	55.1 mPa·s
347.72 K, Cone and plate viscometry	53.8 mPa·s
347.81 K, Cone and plate viscometry	53.7 mPa·s
348.46 K, Cone and plate viscometry	52.4 mPa·s
348.57 K, Cone and plate viscometry	52.3 mPa·s
349.19 K, Cone and plate viscometry	51.1 mPa·s
349.33 K, Cone and plate viscometry	50.8 mPa·s
349.94 K, Cone and plate viscometry	49.7 mPa·s
350.07 K, Cone and plate viscometry	49.4 mPa·s
350.69 K, Cone and plate viscometry	48.3 mPa·s
350.77 K, Cone and plate viscometry	48.2 mPa·s
351.42 K, Cone and plate viscometry	47 mPa·s
351.48 K, Cone and plate viscometry	47.2 mPa·s
352.16 K, Cone and plate viscometry	46 mPa·s
352.22 K, Cone and plate viscometry	46.3 mPa·s
352.91 K, Cone and plate viscometry	45.1 mPa·s
352.99 K, Cone and plate viscometry	45.2 mPa·s
353.15 K, Concentric cylinders viscometry	44.7 mPa·s
353.66 K, Cone and plate viscometry	43.7 mPa·s
353.75 K, Cone and plate viscometry	44.3 mPa·s
354.39 K, Cone and plate viscometry	42.6 mPa·s
354.48 K, Cone and plate viscometry	43 mPa·s
355.14 K, Cone and plate viscometry	41.9 mPa·s
355.2 K, Cone and plate viscometry	42 mPa·s
355.88 K, Cone and plate viscometry	40.9 mPa·s
355.92 K, Cone and plate viscometry	41.3 mPa·s
356.63 K, Cone and plate viscometry	40.2 mPa·s
356.66 K, Cone and plate viscometry	40.5 mPa·s
357.36 K, Cone and plate viscometry	39 mPa·s
357.39 K, Cone and plate viscometry	39.2 mPa·s
358.1 K, Cone and plate viscometry	37.6 mPa·s
358.11 K, Cone and plate viscometry	38 mPa·s
358.85 K, Cone and plate viscometry	36.5 mPa·s
358.86 K, Cone and plate viscometry	37 mPa·s
359.6 K, Cone and plate viscometry	35.6 mPa·s and 36.5 mPa·s
360.35 K, Cone and plate viscometry	34.8 mPa·s and 35.7 mPa·s
361.08 K, Cone and plate viscometry	34.6 mPa·s
361.09 K, Cone and plate viscometry	35 mPa·s
361.82 K, Cone and plate viscometry	33.9 mPa·s and 34 mPa·s
362.57 K, Cone and plate viscometry	32.8 mPa·s
362.58 K, Cone and plate viscometry	32.5 mPa·s
363.15 K, Concentric cylinders viscometry	32.1 mPa·s
363.31 K, Cone and plate viscometry	32.1 mPa·s
363.32 K, Cone and plate viscometry	31.9 mPa·s
364.05 K, Cone and plate viscometry	31.3 mPa·s and 31.4 mPa·s
364.79 K, Cone and plate viscometry	31.1 mPa·s
364.8 K, Cone and plate viscometry	30.9 mPa·s
365.54 K, Cone and plate viscometry	29.7 mPa·s and 30.4 mPa·s
366.28 K, Cone and plate viscometry	29.6 mPa·s
366.29 K, Cone and plate viscometry	29.1 mPa·s
367.02 K, Cone and plate viscometry	28.7 mPa·s and 28.9 mPa·s
367.76 K, Cone and plate viscometry	27.9 mPa·s and 28.2 mPa·s
368.49 K, Cone and plate viscometry	27.6 mPa·s
368.51 K, Cone and plate viscometry	27.1 mPa·s
369.24 K, Cone and plate viscometry	27 mPa·s

Details	mass density	speed of sound [m/s]
333.15 K	1209.85 kg/m3 [middle of 4 runs]	1318.6
343.15 K	1202.43 kg/m3 [middle of 4 runs]	–
343.16 K	–	1296.1
353.15 K	1195.18 kg/m3 and 1195.41 kg/m3	–
363.15 K	1188.37 kg/m3 and 1188.53 kg/m3	–
